This note sets out measurements from patent publication US20260166162A1, “CARBON CHAIN SUBSTANCE FOR REGULATING TRANSMEMBRANE TRANSPORT AND FLUIDITY OF CELL MEMBRANES, AND PREPARATION AND USE THEREOF” (priority 2022, published 2026).

Molecules are shown by their SMILES. Read-outs that look alike come from different tables or passages of the source.

In one data set the test system is Staphylococcus aureus. Briefly: Bacteriostasis/sterilization test (plate count). In kind it is cell-based. Conditions: for inhibition rate: concentration 0.035 mM; for IC50: read-out: half inhibition concentration; for Inhibition rate (%) / inhibition at 35 µM: 0.035 mM (Table 25); for inhibition at 35 µM: read-out: Inhibition rate (%); for inhibition at 9 µM: concentration 0.009 mM, read-out: inhibition rate.

For data set [1] the following is noted: mouse, in vivo, po.
A further data set has as its system VERO E6 cells. Briefly: Cytotoxicity (CCK-8) on VERO E6 cells.
The next data set concerns Escherichia coli. Briefly: Bacteriostasis/sterilization test (plate count). The data set is classed as cell-based. Conditions: for Inhibition rate (%): 0.035 mM (Table 25); for inhibition at 35 µM: Escherichia coli, read-out: Inhibition rate (%).
In data set [2] the test system is Methicillin-resistant Staphylococcus aureus. Briefly: Bacteriostasis/sterilization test (plate count). The data set is classed as cell-based. As to conditions: 0.035 mM (Table 25).
In the next data set the test system is Streptococcus pneumoniae. Briefly: Bacteriostasis/sterilization test (plate count). As to conditions: for Inhibition rate (%): 0.035 mM (Table 25); for inhibition at 35 µM: Streptococcus pneumoniae, read-out: Inhibition rate (%). In kind it is cell-based.
The subject of the next data set is Klebsiella pneumoniae. Kind of data set: Bacteriostasis/sterilization test (plate count). The data set is classed as cell-based. As to conditions: for Inhibition rate (%): 0.035 mM (Table 25); for inhibition at 35 µM: Klebsiella pneumoniae, read-out: Inhibition rate (%).
The next data set relates to Pseudomonas aeruginosa. Kind of data set: Bacteriostasis/sterilization test (plate count). The data set is classed as cell-based. As to conditions: for Inhibition rate (%): 0.035 mM (Table 25); for inhibition at 35 µM: Pseudomonas aeruginosa, read-out: Inhibition rate (%).
A further data set relates to H7N9 pseudovirus. The data set is classed as cell-based, Influenza pseudovirus H7N9-Fluc.
A further data set deals with H5N1 pseudovirus. In kind it is cell-based, Influenza pseudovirus H5N1-Fluc.
A further data set deals with HIV pseudovirus. In kind it is cell-based, HIV pseudovirus HIV18A-41.
Data set [3] relates to SARS-CoV-2 pseudovirus. The data set is classed as cell-based, SARS-CoV-2 pseudovirus B.1.526.2.
The subject of data set [4] is SARS-CoV-2 pseudovirus (B.1.526.2). The data set is classed as cell-based. Conditions: n=3.
Another data set relates to 293T cells. Briefly: Cellular phagocytosis of DiD-loaded lipid vesicles (nano-drugs) by 293T cells (Example II-51, Table II-29). In kind it is cell-based. Conditions: 293T cells pretreated 4 h, DiD lipid vesicles 2 h, n=3, untreated control 226.46 ± 1.26.
Data set [5] has as its system SARS-CoV-2 pseudovirus. The arrangement: species or system SARS-CoV-2 pseudovirus B.1.526.2.
Data set [6] has as its system TNF-α. Briefly: Skin photoaging (UVB) in BALB/c nude mice, serum TNF-α (Example II-54, Table II-32). In kind it is in vivo, mouse. Conditions: UVB-irradiated BALB/c nude mice, 40 days.
Data set [7] concerns IL-1β. Kind of data set: Skin photoaging (UVB) in BALB/c nude mice, serum IL-1β (Example II-54, Table II-33). As to conditions: serum, UVB-irradiated BALB/c nude mice, 40 days. In kind it is in vivo, mouse.
Data set [8] concerns IL-6. Briefly: Skin photoaging (UVB) in BALB/c nude mice, serum IL-6 (Example II-54, Table II-34). Conditions: serum, UVB-irradiated BALB/c nude mice, 40 days. In kind it is in vivo, mouse.
For data set [9], the system named is IL-1β. Briefly: LPS inflammatory aging in C57BL/6 mice, serum IL-1β (Example II-55, Table II-35). In kind it is in vivo, mouse. Conditions: 1 mM, 200 μl/time, once a day, 30 days.
The subject of data set [10] is IL-6. Briefly: LPS inflammatory aging in C57BL/6 mice, serum IL-6 (Example II-55, Table II-36). The data set is classed as in vivo, mouse. Conditions: 1 mM, 200 μl/time once a day for 30 days; serum, LPS C57BL/6 mice.
Data set [11] deals with TNF-α. Briefly: LPS inflammatory aging in C57BL/6 mice, serum TNF-α (Example II-55, Table II-37). The data set is classed as in vivo, mouse. As to conditions: 1 mM, 200 μl/time once a day for 30 days, LPS C57BL/6 mice.

`CCCCCCCC/C=C\CCCCCCCC(=O)NCCCCC(N)C(=O)O` (stereo not shown): in the data set with Staphylococcus aureus, the inhibition rate entry is on record as “greater than 99%” and the IC50 came out at 9 µM. Further, in data set [1], the “liver, heart, kidney, bone/hepatobiliary function in blood versus control group” value is “no difference” and the “physiological state, body weight, fur color, food consumption, mental state versus control group” value is recorded as “not significantly different”. The “effect of the complex on cells” value in the data set on VERO E6 cells ([…] to 0.035 mM) was “less than 1%”.
For the molecule `CCCCCCCC(=O)OCC(N)C(=O)O` (stereo not shown), the “Inhibition rate (%)” value (in the data set on Escherichia coli; with Staphylococcus aureus; in data set [2]; in the data set on Streptococcus pneumoniae; in the data set on Klebsiella pneumoniae; in the data set on Pseudomonas aeruginosa) was 99% throughout. The “Inhibition rate (%)” value in data set [4] (2 nM) is on record as 30.54 ± 0.54%; in data set [4] (5 nM) it was 52.06 ± 5.23%; in data set [4] (10 nM), 53.84 ± 1.57%; in data set [4] (50 nM), 56.33 ± 1.56%; in data set [4] (100 nM) it was 63.22 ± 2.55%; in [4] (1 μM) it was -97.39 ± 7.23%. Moreover, the “Inhibition rate (%)” value in [4] (10 μM) was -44.26 ± 0.03%; in [4] (50 μM), 71.36 ± 0.28%; in data set [4] (100 μM) it was 73.55 ± 0.44%. Further, the inhibition rate entry in the data set with Staphylococcus aureus is reported as “greater than 99%”. Further, the IC50 in the data set with Staphylococcus aureus was 9 µM. In addition, the “Sterilization rate (%)” value in the data set with H7N9 pseudovirus, in the data set on H5N1 pseudovirus, with HIV pseudovirus and with SARS-CoV-2 pseudovirus [3] was 99% in each case. The Fluorescence intensity with 293T cells (2 nM) turned out to be 157.30 ± 0.13; in the data set with 293T cells (5 nM), 108.56 ± 0.13; with 293T cells (10 nM) it was 104.53 ± 0.13; in the data set with 293T cells (50 nM) it was 98.90 ± 0.13; in the data set on 293T cells (100 nM), 83.29 ± 5.66; with 293T cells (1 uM) it was 447.01 ± 12.33. For the same molecule, the Fluorescence intensity in the data set on 293T cells (10 uM) came out at 326.69 ± 4.66; in the data set with 293T cells (50 uM), 64.86 ± 5.13; with 293T cells (100 uM), 59.90 ± 4.13.
Turning to `CCCCCCCC(=O)OC(C)C(N)C(=O)O` (stereo not shown), the “Inhibition rate (%)” value (with Escherichia coli; with Staphylococcus aureus; in data set [2]; in the data set with Streptococcus pneumoniae; in the data set on Klebsiella pneumoniae; with Pseudomonas aeruginosa) was 99% in each case. In the data set on Staphylococcus aureus, the inhibition rate result is “greater than 99%”. The IC50 in the data set with Staphylococcus aureus amounted to 9 µM. For the same molecule, the “Sterilization rate (%)” value with H7N9 pseudovirus, in the data set with H5N1 pseudovirus, in the data set on HIV pseudovirus and with SARS-CoV-2 pseudovirus [3] was 99% in each case. Moreover, the “membrane structure of the virus (TEM)” value in the data set on SARS-CoV-2 pseudovirus [5] is reported as “broken”.
For `CCCCCCC(O)CC=CCCCCCCCC(=O)NCCCCC(N)C(=O)O` (stereo not shown) [Lys-ricinoleic acid], the TNF-α came to 60 pg/mL in the data set with TNF-α [6] (30 μM smeared), 55 pg/mL with TNF-α [6] (50 μM smeared), 57 pg/mL in the data set on TNF-α [6] (100 μM smeared) and 43 pg/mL in the data set on TNF-α [11]. The IL-1β with IL-1β [7] (30 μM smeared) is 70 pg/mL; in the data set with IL-1β [7] (50 μM smeared) it was 65 pg/mL; with IL-1β [7] (100 μM smeared), 63 pg/mL; with IL-1β [9], 51 pg/mL. Also, the IL-6 was 34 pg/mL in the data set on IL-6 [8] (30 μM smeared), 38 pg/mL in the data set on IL-6 [8] (50 μM smeared), 33 pg/mL with IL-6 [8] (100 μM smeared) and 60 pg/mL in the data set on IL-6 [10].
For orientation: inhibition means the change of the read-out against control, counted positive when it falls. Consider `CCCCCCCCCN(C)C[C@H](O)[C@@H](O)[C@H](O)[C@H](O)CO` [N-nonyl-N-methylglucamine], for which the inhibition at 35 µM with Escherichia coli, in the data set with Staphylococcus aureus (Staphylococcus aureus), in the data set on Streptococcus pneumoniae, in the data set with Klebsiella pneumoniae and with Pseudomonas aeruginosa was 99% each time. Further, in the data set on Staphylococcus aureus (Staphylococcus aureus), the inhibition at 9 µM is over 99%. In addition, the IC50 in the data set on Staphylococcus aureus (Staphylococcus aureus) stood at 3 µM. The “Sterilization rate (%)” value in the data set with H7N9 pseudovirus, with H5N1 pseudovirus, with HIV pseudovirus and in the data set with SARS-CoV-2 pseudovirus [3] was 99% in each case. The “liver, heart, kidney, bone/hepatobiliary function in blood versus control group” value in data set [1] is on record as “no difference”. The “physiological state, body weight, fur color, food consumption, mental state versus control group” value in data set [1] is “not significantly different”. Also, the “effect of the complex on cells” value in the data set with VERO E6 cells (9 mM to 0.035 mM) was “less than 10%”.
Regarding `CCCCCCCCN(C)C[C@H](O)[C@@H](O)[C@H](O)[C@H](O)CO` [N-octyl-N-methylglucamine], the inhibition at 35 µM in the data set with Escherichia coli, with Staphylococcus aureus (Staphylococcus aureus), with Streptococcus pneumoniae, in the data set with Klebsiella pneumoniae and in the data set with Pseudomonas aeruginosa was 99% each time. Also, the inhibition at 9 µM in the data set on Staphylococcus aureus (Staphylococcus aureus) was over 99%. The IC50 in the data set on Staphylococcus aureus (Staphylococcus aureus) stood at 3 µM. In addition, the “Sterilization rate (%)” value in the data set with H7N9 pseudovirus, with H5N1 pseudovirus, in the data set on HIV pseudovirus and in the data set on SARS-CoV-2 pseudovirus [3] was 99% in each case. Besides, the “liver, heart, kidney, bone/hepatobiliary function in blood versus control group” value in data set [1] is on record as “no difference”. The “physiological state, body weight, fur color, food consumption, mental state versus control group” value in data set [1] is recorded as “not significantly different”. Further, in the data set with VERO E6 cells (9 mM to 0.035 mM), the “effect of the complex on cells” value was “less than 10%”.
On to `CCCCCC=CCC=CCCCCCCCC(=O)OCC(N)C(=O)O` (stereo not shown) [Ser-linoleic acid], for which the TNF-α came to 48 pg/mL in the data set with TNF-α [6] (30 μM smeared), 51 pg/mL in the data set with TNF-α [6] (50 μM smeared), 45 pg/mL in the data set with TNF-α [6] (100 μM smeared) and 49 pg/mL in the data set with TNF-α [11]. Further, the IL-1β was found to be 53 pg/mL in the data set on IL-1β [7] (30 μM smeared), 54 pg/mL in the data set with IL-1β [7] (50 μM smeared), 55 pg/mL in the data set with IL-1β [7] (100 μM smeared) and 43 pg/mL with IL-1β [9]. Moreover, the IL-6 was determined as 28 pg/mL in the data set on IL-6 [8] (30 μM smeared), 27 pg/mL in the data set with IL-6 [8] (50 μM smeared), 29 pg/mL with IL-6 [8] (100 μM smeared) and 39 pg/mL in the data set with IL-6 [10].
With `CCC=CCC=CCC=CCCCCCCCC(=O)OC(C)C(N)C(=O)O` (stereo not shown) [Thr-linolenic acid], the “IL-1β” value with IL-1β [9] came to 41 pg/mL. For the same molecule, the IL-6 in the data set on IL-6 [10] is 57 pg/mL. Also, in the data set with TNF-α [11], the TNF-α stood at 52 pg/mL.
